{"source": "ChEMBL document CHEMBL6103619", "about": "“Discovery of a Novel CRBN-Recruiting cGAS PROTAC Degrader for the Treatment of Ulcerative Colitis” (J Med Chem, 2025)", "key": {"[1]": {"test_system": "RAW264.7", "assay": "Upregulation of IFNB mRNA expression level in mouse Trex1-/- RAW264.7 cells at 5 to 20 uM incubated for 24 hrs by qRT-PCR analysis", "type": "functional, cell-based", "details": "dose 5-20 µM"}, "[2]": {"test_system": "Mus musculus", "assay": "(§1) Anti-inflammatory activity in DSS-induced ulcerative colitis C57BL/6 mouse model assessed as reduction in histopathological score of colon at 20 to 50 mg/kg/day, ip preadministered with DSS for 7 days followed by replacement with ultrapure water for 3 days with subsequent compound administration starting from day 4 to 10 and measured on day 11", "type": "functional, organism-based", "details": "dose 20-50 mg/kg/day, time 8.0 day"}, "[3]": {"molecular_target": "T1, Protein cereblon/Cyclic GMP-AMP synthase (Homo sapiens, UniProt Q96SW2+Q8N884)", "T1 sequence (Q8N884 whole entry, looked up)": "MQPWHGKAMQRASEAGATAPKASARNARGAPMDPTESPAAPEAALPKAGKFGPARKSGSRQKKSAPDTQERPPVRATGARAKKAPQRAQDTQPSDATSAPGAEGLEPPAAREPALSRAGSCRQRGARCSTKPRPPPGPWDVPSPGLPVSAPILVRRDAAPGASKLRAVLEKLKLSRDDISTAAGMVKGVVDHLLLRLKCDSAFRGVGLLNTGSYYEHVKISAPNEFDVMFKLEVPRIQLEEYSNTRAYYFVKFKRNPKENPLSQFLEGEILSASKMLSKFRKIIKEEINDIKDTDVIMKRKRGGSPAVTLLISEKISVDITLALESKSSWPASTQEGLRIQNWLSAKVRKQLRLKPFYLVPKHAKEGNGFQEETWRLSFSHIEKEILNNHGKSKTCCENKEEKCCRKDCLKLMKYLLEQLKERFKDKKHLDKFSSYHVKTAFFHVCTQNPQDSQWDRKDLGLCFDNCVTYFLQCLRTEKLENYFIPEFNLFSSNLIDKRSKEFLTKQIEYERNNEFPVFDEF", "T1 sequence (Q96SW2 whole entry, looked up)": "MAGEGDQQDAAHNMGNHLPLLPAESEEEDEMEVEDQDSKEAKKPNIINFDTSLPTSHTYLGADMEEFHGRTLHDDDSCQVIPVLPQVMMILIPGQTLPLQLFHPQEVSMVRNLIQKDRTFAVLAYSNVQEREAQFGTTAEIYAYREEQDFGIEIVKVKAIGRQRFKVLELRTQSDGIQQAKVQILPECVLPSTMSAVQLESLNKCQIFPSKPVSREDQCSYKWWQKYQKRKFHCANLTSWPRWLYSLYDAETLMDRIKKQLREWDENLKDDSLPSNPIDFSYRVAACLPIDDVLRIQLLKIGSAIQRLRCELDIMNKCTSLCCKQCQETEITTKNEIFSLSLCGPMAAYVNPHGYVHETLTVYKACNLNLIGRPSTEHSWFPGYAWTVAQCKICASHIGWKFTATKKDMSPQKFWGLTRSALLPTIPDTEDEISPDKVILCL", "assay": "PROTAC activity at CRBN/cGAS in human THP-1 cells assessed as induction of cGAS degradation at 10 uM preincubated with 1-(6,7-dichloro-9-(1-methyl-1H-pyrazol-3-yl)-1,3,4,5-tetrahydro-2H-pyrido[4,3-b]indol-2-yl)-2-hydroxyethan-1-one for 2 hrs followed by compound addition and measured after 48 hrs by Western blot analysis", "type": "cell-based"}, "[4]": {"assay": "Cytotoxicity against mouse RAW-Lucia ISG cells assessed as reduction in cell viability upto 60 uM incubated for 48 hrs by CCK8 assay", "type": "toxicity, cell-based"}, "[5]": {"assay": "AUC (0 to infinity) in male C57BL/6 mouse at 20 mg/kg, ip measured after 24 hrs by LC-MS/MS analysis", "type": "ADME, organism-based", "details": "in vivo"}, "[6]": {"test_system": "THP-1", "assay": "Downregulation of IFNB mRNA expression level in HSV-1-induced human THP-1 cells at 20 uM preincubated with compound for 12 hrs followed by HSV1 addition and measured after 8 hrs by RT-qPCR analysis", "type": "functional, cell-based", "details": "time 20.0 hrs"}, "[7]": {"assay": "Downregulation of cGAS protein level in human THP-1 cells at 10 uM incubated for 48 hrs by MS-based LFQ whole proteome analysis relative to control", "type": "functional"}, "[8]": {"test_system": "Mus musculus", "assay": "as §1, with “improvement” for “reduction”, “in” for “in histopathological score of”, “colon pathology” for “colon”, “11 by H and E staining based analysis” for “11”", "type": "functional, organism-based", "details": "dose 20-50 mg/kg/day, time 8.0 day"}, "[9]": {"assay": "AUC (0 to 24 hrs) in male C57BL/6 mouse at 20 mg/kg, ip measured after 24 hrs by LC-MS/MS analysis", "type": "ADME, organism-based", "details": "in vivo"}, "[10]": {"assay": "Volume of distribution in male C57BL/6 mouse at 1 mg/kg, iv measured after 24 hrs by LC-MS/MS analysis", "type": "ADME, organism-based", "details": "in vivo"}, "[11]": {"test_system": "Mus musculus", "assay": "as §1, with “decrease” for “reduction”, “body weight loss” for “histopathological score of colon”", "type": "functional, organism-based", "details": "dose 20-50 mg/kg/day, time 8.0 day"}, "[12]": {"assay": "MRT (0 to 24 hrs) in male C57BL/6 mouse at 20 mg/kg, ip measured after 24 hrs by LC-MS/MS analysis", "type": "ADME, organism-based", "details": "in vivo"}, "[13]": {"assay": "Half-life in male C57BL/6 mouse at 20 mg/kg, ip measured after 24 hrs by LC-MS/MS analysis", "type": "ADME, organism-based", "details": "in vivo"}, "[14]": {"test_system": "Mus musculus", "assay": "as §1, with “increase” for “reduction”, “in” for “in histopathological score of”, “colon length” for “colon”", "type": "functional, organism-based", "details": "dose 20-50 mg/kg/day, time 8.0 day"}, "[15]": {"test_system": "Mus musculus", "assay": "as §1, with “IFNB mRNA level in” for “histopathological score of”, “11 by qRT-PCR analysis” for “11”", "type": "functional, organism-based", "details": "dose 20-50 mg/kg/day, time 8.0 day"}, "[16]": {"test_system": "Mus musculus", "assay": "as §1, with “IL-6 secretion in” for “histopathological score of”, “11 by ELISA” for “11”", "type": "functional, organism-based", "details": "dose 20-50 mg/kg/day, time 8.0 day"}, "[17]": {"test_system": "Mus musculus", "assay": "as §1, with “[…]” for “reduction”, “[…]” for “histopathological score of colon”", "type": "functional, organism-based", "details": "dose 20-50 mg/kg/day, time 8.0 day"}, "[18]": {"molecular_target": "T2, Protein cereblon/Cyclic GMP-AMP synthase (Mus musculus) (UniProt Q8C6L5+Q8C7D2)", "T2 sequence (Q8C6L5 whole entry, looked up)": "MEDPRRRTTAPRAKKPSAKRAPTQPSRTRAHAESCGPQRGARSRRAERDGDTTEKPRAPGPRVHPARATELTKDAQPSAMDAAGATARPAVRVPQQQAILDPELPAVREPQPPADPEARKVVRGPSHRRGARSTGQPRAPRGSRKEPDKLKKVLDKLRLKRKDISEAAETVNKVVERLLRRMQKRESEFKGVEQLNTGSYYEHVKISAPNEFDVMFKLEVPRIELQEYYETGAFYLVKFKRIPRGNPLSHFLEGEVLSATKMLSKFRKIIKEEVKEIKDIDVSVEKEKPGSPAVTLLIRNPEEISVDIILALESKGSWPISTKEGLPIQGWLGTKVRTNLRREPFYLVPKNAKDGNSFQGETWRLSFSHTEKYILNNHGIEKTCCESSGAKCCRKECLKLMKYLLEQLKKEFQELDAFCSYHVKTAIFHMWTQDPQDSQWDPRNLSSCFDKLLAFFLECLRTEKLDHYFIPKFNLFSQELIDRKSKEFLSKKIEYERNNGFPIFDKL", "T2 sequence (Q8C7D2 whole entry, looked up)": "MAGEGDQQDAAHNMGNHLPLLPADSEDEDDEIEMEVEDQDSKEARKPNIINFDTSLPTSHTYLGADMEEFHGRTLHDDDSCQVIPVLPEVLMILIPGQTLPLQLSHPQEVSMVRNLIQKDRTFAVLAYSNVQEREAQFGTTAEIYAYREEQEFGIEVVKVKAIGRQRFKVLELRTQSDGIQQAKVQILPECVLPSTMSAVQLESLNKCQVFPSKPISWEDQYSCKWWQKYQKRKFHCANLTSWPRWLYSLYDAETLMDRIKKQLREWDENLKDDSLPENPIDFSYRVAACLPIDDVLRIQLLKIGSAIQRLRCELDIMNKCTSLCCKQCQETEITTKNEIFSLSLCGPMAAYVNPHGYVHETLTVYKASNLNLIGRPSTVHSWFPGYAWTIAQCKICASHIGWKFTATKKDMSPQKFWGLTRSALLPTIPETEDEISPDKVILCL", "assay": "PROTAC activity at CRBN/cGAS in mouse RAW264.7 cells assessed as induction of cGAS degradation by measuring maximal efficacy at 20 uM preincubated with compound for 40 hrs followed by HT-DNA stimulation and measured after 8 hrs by Western blot analysis relative to control", "type": "cell-based", "details": "time 48.0 hrs"}, "[19]": {"assay": "Cytotoxicity against human THP1-Lucia ISG cells assessed as reduction in cell viability at >30 uM incubated for 48 hrs by CCK8 assay", "type": "toxicity, cell-based"}, "[20]": {"assay": "(§2) Inhibition of dsDNA-induced cGAS signaling pathway in human THP1-Lucia ISG cells preincubated with compound for 24 hrs followed by HT-DNA addition and measured after 24 hrs by QUANTI-Luc luciferase reagent based assay", "type": "cell-based"}, "[21]": {"test_system": "THP1-Lucia ISG", "assay": "as §2", "type": "cell-based", "details": "time 48.0 hrs"}, "[22]": {"test_system": "Mus musculus", "assay": "as §1, with “mucosal NET formation by measuring reduction in citH3 level in” for “histopathological score of”, “11 by immunofluorescence imaging analysis” for “11”", "type": "functional, organism-based", "details": "dose 20-50 mg/kg/day, time 8.0 day"}, "[23]": {"assay": "Half-life in male C57BL/6 mouse at 1 mg/kg, iv measured after 24 hrs by LC-MS/MS analysis", "type": "ADME, organism-based", "details": "in vivo"}, "[24]": {"molecular_target": "T2, Protein cereblon/Cyclic GMP-AMP synthase (Mus musculus)", "assay": "In vivo inhibition of cGAS signaling pathway in DSS-induced ulcerative colitis C57BL/6 mouse model assessed as reduction in IRF3 phosphorylation level in colon preadministered with DSS for 7 days followed by replacement with ultrapure water for 3 days with subsequent intraperitoneal compound administration starting from day 4 to 10 and measured on day 11 by Western blot analysis", "type": "functional, organism-based", "details": "dose 20-50 mg/kg/day, route ip, time 8.0 day"}, "[25]": {"assay": "Cytotoxicity against human THP1-Lucia ISG cells assessed as reduction in cell viability upto 60 uM incubated for 48 hrs by CCK8 assay", "type": "toxicity, cell-based"}, "[26]": {"test_system": "Mus musculus", "assay": "as §1, with “NET generation by measuring reduction in citH3 level in” for “histopathological score of”, “11 by Western blot analysis” for “11”", "type": "functional, organism-based", "details": "dose 20-50 mg/kg/day, time 8.0 day"}, "[27]": {"test_system": "Mus musculus", "assay": "as §1, with “IL-6 mRNA level in” for “histopathological score of”, “11 by qRT-PCR analysis” for “11”", "type": "functional, organism-based", "details": "dose 20-50 mg/kg/day, time 8.0 day"}, "[28]": {"molecular_target": "T1, Protein cereblon/Cyclic GMP-AMP synthase", "assay": "PROTAC activity at CRBN/cGAS in human THP-1 cells assessed as induction of cGAS degradation at 10 uM preincubated with MG132 for 2 hrs followed by compound addition and measured after 48 hrs by Western blot analysis", "type": "cell-based"}, "[29]": {"assay": "AUC (0 to infinity) in male C57BL/6 mouse at 1 mg/kg, iv measured after 24 hrs by LC-MS/MS analysis", "type": "ADME, organism-based", "details": "in vivo"}, "[30]": {"assay": "AUC (0 to 24 hrs) in male C57BL/6 mouse at 1 mg/kg, iv measured after 24 hrs by LC-MS/MS analysis", "type": "ADME, organism-based", "details": "in vivo"}, "[31]": {"assay": "Drug distribution in male C57BL/6 mouse colon at 20 mg/kg, ip measured after 2 to 24 hrs by LC-MS/MS analysis", "type": "ADME, organism-based", "details": "in vivo, time 2-24 hrs"}, "[32]": {"test_system": "RAW264.7", "assay": "Inhibition of ds-DNA induced cGAS-STING signaling pathway in mouse RAW264.7 cells assessed as reduction in IRF3 phosphorylation preincubated with compound for 40 hrs followed by HT-DNA addition and measured after 8 hrs by Western blot analysis", "type": "cell-based", "details": "dose 0.7-20 µM, time 48.0 hrs"}, "[33]": {"test_system": "Mus musculus", "assay": "as §1, with “TNF-alpha secretion in” for “histopathological score of”, “11 by ELISA” for “11”", "type": "functional, organism-based", "details": "dose 20-50 mg/kg/day, time 8.0 day"}}, "note": "The source made the active and inactive calls. No cut-off for these calls is given here."}
{"smiles": "Cn1ccc(-c2cc(Cl)c(Cl)c3[nH]c4c(c23)CN(C(=O)CNC(=O)CCCC#Cc2cccc3c2CN(C2CCC(=O)NC2=O)C3=O)CC4)n1", "note": "(stereo not drawn)", "values": [{"measurement": "Activity", "setting": "[1]", "result": "Active"}, {"measurement": "Activity", "setting": "[2]", "result": "Active"}, {"measurement": "Activity", "setting": "[3]", "result": "inactive"}, {"measurement": "Activity", "setting": "[4]", "result": "Non-toxic"}, {"measurement": "AUC(0-inf)", "setting": "[5]", "result": 2800, "unit": "ng·h/mL"}, {"measurement": "Activity", "setting": "[6]", "result": "Active"}, {"measurement": "Activity", "setting": "[7]", "result": ">80", "unit": "%"}, {"measurement": "Activity", "setting": "[8]", "result": "Active"}, {"measurement": "AUC(0-t) at 24 h", "setting": "[9]", "result": 2020, "unit": "ng·h/mL"}, {"measurement": "Vd", "setting": "[10]", "result": 8.1, "unit": "L/kg"}, {"measurement": "Activity", "setting": "[11]", "result": "Active"}, {"measurement": "MRT last at 24 h", "setting": "[12]", "result": 7.9, "unit": "h"}, {"measurement": "half-life", "setting": "[13]", "result": 13.7, "unit": "h"}, {"measurement": "Activity", "setting": "[14]", "result": "Active"}, {"measurement": "Activity", "setting": "[15]", "result": "Active"}, {"measurement": "Activity", "setting": "[16]", "result": "Active"}, {"measurement": "Activity", "setting": "[17]", "result": "Active"}, {"measurement": "Emax", "setting": "[18]", "result": 91.6, "unit": "%"}, {"measurement": "Activity", "setting": "[19]", "result": "Toxic"}, {"measurement": "IC50", "setting": "[20]", "result": 1800, "unit": "nM"}, {"measurement": "inhibition", "setting": "[21]", "result": "Dose-dependent-effect"}, {"measurement": "Activity", "setting": "[22]", "result": "Active"}, {"measurement": "half-life", "setting": "[23]", "result": 3, "unit": "h"}, {"measurement": "inhibition", "setting": "[24]", "result": "Dose-dependent-effect"}, {"measurement": "Activity", "setting": "[25]", "result": "Non-toxic"}, {"measurement": "Activity", "setting": "[26]", "result": "Active"}, {"measurement": "Activity", "setting": "[27]", "result": "Active"}, {"measurement": "Activity", "setting": "[28]", "result": "inactive"}, {"measurement": "AUC(0-inf)", "setting": "[29]", "result": 531, "unit": "ng·h/mL"}, {"measurement": "AUC(0-t) at 24 h", "setting": "[30]", "result": 530, "unit": "ng·h/mL"}, {"measurement": "Drug uptake", "setting": "[31]", "result": "Active"}, {"measurement": "inhibition", "setting": "[32]", "result": "Dose-dependent-effect"}, {"measurement": "Activity", "setting": "[33]", "result": "Active"}]}
